In patent publication US10526316B2, “Quinoxaline and pyridopyrazine derivatives as PI3Kβ inhibitors” (Janssen Pharmaceutica NV, priority 2015, dated 2020) one finds IC50, Kd and melting point data, which are given here for nine molecules.

In general, IC50 refers to the point on the concentration scale where inhibition reaches its midpoint. Usually Kd stands for the constant that tells how readily two partners part at equilibrium. The term melting point denotes the temperature, or range, at which the solid turns liquid.

Like-named read-outs stand apart in the source and are kept apart here. A value given as a limit tells only on which side of the number the result lay.

Data set [1] deals with Akt phosphorylated at Ser473 in PC-3 cells. The experiment in a line: Cellular assay: phosphorylation of Akt at Ser473 in PC-3 cells (MSD ELISA). The class given is cell-based. To be noted: PC-3 cells, 60 min compound incubation, MSD ELISA, read-out: IC50 pAkt_S473. The essentials:
(§1)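 PC-3 cells were exposed to compound or 0.3% DMSO for 60 min at 37° C, 5% CO2, then lysed in ice-cold buffer. Phospho-Akt was captured on site-specific antibody-coated plates and detected with Sulfo-tag anti-total Akt by electrochemiluminescence. IC50 values came from five-concentration response curves.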

Data set [2] relates to Akt phosphorylated at Thr308 in PC-3 cells. Description: Cellular assay: phosphorylation of Akt at Thr308 in PC-3 cells (MSD ELISA). Type of data set: cell-based. Conditions: PC-3 cells, 60 min compound incubation, MSD ELISA, read-out: IC50 pAkt_Thr308. The gist of the method: as §1
Data set [3] has as its target T1, kinase enzymes (Homo sapiens, UniProt P48736).
T1 construct: purchased DiscoveRx Corporation, San Diego (contract service, KINOMEscan)
The experiment in a line: Enzyme binding assay (KINOMEscan, DiscoveRx), further kinases of Table A. Conditions: PIK3Cγ_h. The gist of the method:
(§2)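 Affinity for each kinase was determined by KINOMEscan profiling.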

Data set [4] has as its target T2, kinase enzymes (Homo sapiens, UniProt P42336).
T2 construct: purchased DiscoveRx Corporation, San Diego (contract service, KINOMEscan)
The description is as above. Conditions: PIK3Cα_h. The essentials:
as §2

Data set [5] has as its target T3, kinase enzymes (Homo sapiens, UniProt P42345).
T3 construct: purchased DiscoveRx Corporation, San Diego (contract service, KINOMEscan)
The data set is described as above. Conditions: MTOR_h. The essentials:
as §2

In data set [6] the target is T4, PI3Kβ (Homo sapiens, UniProt P42338).
T4 construct: purchased DiscoveRx Corporation, San Diego (contract service, KINOMEscan)
The experiment in a line: Enzyme binding assay (KINOMEscan, DiscoveRx). To be noted: PIK3Cβ_h, read-out: Kd PIK3Cβ_h. The essentials: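 Values are Kd in nM, the binding constant of each inhibitor for the kinase, obtained from a KINOMEscan enzyme binding assay.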

The target in data set [7] is T5, PI3Kδ (Homo sapiens, UniProt O00329).
T5 construct: purchased DiscoveRx Corporation, San Diego (contract service, KINOMEscan)
T5 sequence (O00329 1-1044): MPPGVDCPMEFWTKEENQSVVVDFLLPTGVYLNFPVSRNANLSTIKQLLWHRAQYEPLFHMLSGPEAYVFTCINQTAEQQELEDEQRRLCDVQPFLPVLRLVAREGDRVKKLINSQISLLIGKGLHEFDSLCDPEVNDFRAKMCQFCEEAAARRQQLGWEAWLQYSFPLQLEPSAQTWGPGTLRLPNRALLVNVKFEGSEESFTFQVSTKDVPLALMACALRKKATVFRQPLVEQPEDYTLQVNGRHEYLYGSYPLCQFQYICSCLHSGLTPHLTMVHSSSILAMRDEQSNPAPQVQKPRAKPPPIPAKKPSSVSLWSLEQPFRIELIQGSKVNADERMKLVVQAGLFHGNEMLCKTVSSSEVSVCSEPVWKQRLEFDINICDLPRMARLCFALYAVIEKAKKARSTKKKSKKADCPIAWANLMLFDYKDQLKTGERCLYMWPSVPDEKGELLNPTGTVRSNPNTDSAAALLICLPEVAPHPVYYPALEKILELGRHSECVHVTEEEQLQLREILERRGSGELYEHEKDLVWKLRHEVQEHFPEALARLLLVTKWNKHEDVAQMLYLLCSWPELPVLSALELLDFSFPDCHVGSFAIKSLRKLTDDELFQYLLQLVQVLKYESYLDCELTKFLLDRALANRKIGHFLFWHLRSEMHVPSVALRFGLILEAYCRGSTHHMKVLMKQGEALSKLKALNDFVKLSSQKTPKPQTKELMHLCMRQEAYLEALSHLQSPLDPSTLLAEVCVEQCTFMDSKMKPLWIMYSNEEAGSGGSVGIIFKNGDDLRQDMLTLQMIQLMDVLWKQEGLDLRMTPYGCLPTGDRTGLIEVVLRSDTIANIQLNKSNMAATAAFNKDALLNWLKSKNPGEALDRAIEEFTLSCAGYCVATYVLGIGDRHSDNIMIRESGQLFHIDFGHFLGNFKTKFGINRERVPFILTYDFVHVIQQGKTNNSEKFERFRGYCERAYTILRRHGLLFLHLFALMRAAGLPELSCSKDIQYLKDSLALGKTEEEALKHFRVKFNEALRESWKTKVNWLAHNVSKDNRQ
The experiment in a line: Enzyme binding assay (KINOMEscan, DiscoveRx). Conditions: PIK3Cδ_h. The gist of the method:
as §2

T2 sequence (P42336 whole entry): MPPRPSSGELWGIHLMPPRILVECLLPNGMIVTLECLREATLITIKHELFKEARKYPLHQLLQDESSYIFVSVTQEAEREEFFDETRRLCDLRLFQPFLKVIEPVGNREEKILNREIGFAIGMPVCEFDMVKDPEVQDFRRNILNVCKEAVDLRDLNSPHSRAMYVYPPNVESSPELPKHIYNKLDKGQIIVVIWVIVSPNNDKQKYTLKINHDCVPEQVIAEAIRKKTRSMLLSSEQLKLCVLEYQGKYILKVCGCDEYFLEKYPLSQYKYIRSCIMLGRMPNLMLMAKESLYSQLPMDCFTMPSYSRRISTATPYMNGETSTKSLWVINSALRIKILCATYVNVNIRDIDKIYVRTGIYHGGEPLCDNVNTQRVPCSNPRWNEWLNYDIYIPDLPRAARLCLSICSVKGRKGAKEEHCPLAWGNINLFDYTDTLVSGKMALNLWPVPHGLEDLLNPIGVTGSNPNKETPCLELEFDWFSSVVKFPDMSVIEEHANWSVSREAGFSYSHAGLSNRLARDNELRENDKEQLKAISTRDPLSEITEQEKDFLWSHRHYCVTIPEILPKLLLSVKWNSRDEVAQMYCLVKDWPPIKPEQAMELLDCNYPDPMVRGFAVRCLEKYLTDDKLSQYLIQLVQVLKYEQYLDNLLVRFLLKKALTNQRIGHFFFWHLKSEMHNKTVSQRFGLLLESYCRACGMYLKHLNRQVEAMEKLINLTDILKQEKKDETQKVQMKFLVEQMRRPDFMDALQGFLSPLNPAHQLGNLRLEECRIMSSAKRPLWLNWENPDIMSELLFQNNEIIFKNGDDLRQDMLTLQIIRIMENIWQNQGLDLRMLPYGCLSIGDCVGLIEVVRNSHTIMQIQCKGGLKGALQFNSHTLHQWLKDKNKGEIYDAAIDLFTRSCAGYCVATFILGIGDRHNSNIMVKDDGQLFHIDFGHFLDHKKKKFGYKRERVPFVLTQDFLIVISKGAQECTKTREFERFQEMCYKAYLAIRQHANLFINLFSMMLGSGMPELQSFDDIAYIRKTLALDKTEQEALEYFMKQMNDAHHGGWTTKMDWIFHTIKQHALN
T4 sequence (P42338 whole entry): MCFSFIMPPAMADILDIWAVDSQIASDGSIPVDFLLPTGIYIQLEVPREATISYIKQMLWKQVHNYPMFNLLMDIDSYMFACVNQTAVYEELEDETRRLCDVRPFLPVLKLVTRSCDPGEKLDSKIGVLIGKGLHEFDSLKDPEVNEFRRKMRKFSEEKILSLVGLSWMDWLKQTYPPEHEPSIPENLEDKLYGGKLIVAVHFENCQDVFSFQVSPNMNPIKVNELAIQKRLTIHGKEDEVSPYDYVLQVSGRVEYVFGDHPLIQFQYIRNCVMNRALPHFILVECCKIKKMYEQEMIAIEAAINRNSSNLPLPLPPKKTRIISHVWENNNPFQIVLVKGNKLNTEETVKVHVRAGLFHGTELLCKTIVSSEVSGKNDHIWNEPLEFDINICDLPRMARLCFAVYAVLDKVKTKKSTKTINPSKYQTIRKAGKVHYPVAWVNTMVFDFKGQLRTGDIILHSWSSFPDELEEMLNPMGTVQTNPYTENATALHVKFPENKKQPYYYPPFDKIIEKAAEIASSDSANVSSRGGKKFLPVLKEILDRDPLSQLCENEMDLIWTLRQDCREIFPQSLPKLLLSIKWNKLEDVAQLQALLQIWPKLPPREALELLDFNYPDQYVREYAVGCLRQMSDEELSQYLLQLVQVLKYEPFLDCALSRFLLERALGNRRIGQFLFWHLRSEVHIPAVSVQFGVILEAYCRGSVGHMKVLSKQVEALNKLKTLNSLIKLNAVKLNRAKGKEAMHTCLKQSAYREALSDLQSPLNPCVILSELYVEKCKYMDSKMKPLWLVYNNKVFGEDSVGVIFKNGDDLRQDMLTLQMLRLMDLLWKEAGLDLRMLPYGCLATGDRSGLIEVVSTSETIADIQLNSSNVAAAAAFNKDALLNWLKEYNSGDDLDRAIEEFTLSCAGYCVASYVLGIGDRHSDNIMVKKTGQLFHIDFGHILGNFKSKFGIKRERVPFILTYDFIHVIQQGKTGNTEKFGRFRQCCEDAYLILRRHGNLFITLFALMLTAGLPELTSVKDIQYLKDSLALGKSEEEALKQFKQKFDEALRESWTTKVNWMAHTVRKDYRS
T1 sequence (P48736 whole entry): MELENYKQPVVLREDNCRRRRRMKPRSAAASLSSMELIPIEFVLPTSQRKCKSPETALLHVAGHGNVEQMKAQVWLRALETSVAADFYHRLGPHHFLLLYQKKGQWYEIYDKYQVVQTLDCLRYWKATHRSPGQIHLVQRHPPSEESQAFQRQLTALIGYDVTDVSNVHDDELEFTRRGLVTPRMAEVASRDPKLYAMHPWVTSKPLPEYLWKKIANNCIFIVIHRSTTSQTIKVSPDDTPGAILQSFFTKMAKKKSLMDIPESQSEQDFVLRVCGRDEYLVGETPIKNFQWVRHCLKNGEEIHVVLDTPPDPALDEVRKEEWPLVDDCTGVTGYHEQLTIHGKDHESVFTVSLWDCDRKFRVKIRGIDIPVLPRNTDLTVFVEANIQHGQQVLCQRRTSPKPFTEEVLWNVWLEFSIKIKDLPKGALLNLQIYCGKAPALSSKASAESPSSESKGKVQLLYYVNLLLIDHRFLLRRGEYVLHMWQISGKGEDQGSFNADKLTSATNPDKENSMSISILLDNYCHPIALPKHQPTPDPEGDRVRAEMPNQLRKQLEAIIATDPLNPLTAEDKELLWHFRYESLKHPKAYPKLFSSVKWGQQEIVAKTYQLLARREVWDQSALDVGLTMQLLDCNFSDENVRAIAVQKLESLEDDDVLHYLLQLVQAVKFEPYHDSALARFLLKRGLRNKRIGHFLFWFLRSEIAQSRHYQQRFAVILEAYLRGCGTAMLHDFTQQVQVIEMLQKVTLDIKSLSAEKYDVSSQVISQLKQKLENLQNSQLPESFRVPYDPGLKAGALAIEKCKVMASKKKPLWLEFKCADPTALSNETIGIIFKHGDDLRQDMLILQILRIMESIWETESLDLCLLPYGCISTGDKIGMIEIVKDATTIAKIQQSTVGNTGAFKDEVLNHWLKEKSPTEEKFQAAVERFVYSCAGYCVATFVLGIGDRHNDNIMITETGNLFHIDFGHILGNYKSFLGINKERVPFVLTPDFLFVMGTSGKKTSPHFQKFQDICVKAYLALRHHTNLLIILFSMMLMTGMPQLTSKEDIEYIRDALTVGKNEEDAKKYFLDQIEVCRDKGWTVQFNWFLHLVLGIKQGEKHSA

`CC(Nc1cc(F)cc(F)c1)c1cncc2ncc(N3CCOCC3)nc12` (stereo not drawn) [Compound 153] registered a melting point of 90 °C. For the same molecule, the IC50 in data set [1] (Homo sapiens, PC-3, 1 h) worked out at 316 nM. Also, the half-inhibitory concentration (IC50) in data set [2] (Homo sapiens, PC-3, 1 h) turned out to be 316 nM. The molecule further gave a Kd in data set [3] of 2690 nM. Further, binding in data set [4] was characterised by a dissociation constant (Kd) of 5370 nM. Besides, the dissociation constant (Kd) in data set [5] is 16200 nM. Besides, in data set [6], the Kd amounted to 8 nM. The molecule further showed a Kd in data set [7] of 1170 nM.
`CC(Nc1cc(F)cc(F)c1)c1cc(C(=O)N(C)C)cc2ncc(N3CCOCC3)nc12` (single isomer, unassigned) [Compound 12] yielded a melting point of 218 °C. Moreover, the IC50 in data set [1] turned out to be 18 nM. Also, the 50% inhibitory concentration (IC50) in data set [2] came out at 9 nM. In data set [3], the Kd was determined as 1140 nM. The equilibrium dissociation constant (Kd) in data set [4] came out at 276 nM. This molecule also returned an equilibrium dissociation constant (Kd) in data set [5] of 26300 nM. Further, the dissociation constant Kd in data set [6] was determined as 0.4 nM. This molecule also came in with a Kd in data set [7] of 75 nM.
As to `Cc1c(F)cccc1NCc1cc(C(=O)N(C)C)cc2ncc(N3CCOCC3)nc12` [Compound 382], the melting point is 150 °C. For the same molecule, the IC50 in data set [1] (Homo sapiens, PC-3, 1 h) came to 513 nM. Besides, the half-maximal inhibitory concentration (IC50) in data set [2] (Homo sapiens, PC-3, 1 h) was found to be 91 nM. In data set [3], this molecule returned a Kd greater than 30200 nM. In data set [4], the Kd is greater than 30200 nM. This molecule displayed a Kd in data set [5] greater than 30200 nM. Moreover, the Kd in data set [6] was found to be 17 nM. This molecule yielded an equilibrium dissociation constant (Kd) in data set [7] of 5010 nM.
`COC(=O)c1cc(C(C)N(C)c2cccc(F)c2)c2nc(N3CCOCC3)cnc2c1` (stereo not drawn) [Compound 97] registered a melting point of 146 °C. The IC50 in data set [1] (Homo sapiens, PC-3, 1 h) was greater than 513 nM. Besides, the concentration for half-maximal inhibition (IC50) in data set [2] (Homo sapiens, PC-3, 1 h) is greater than 513 nM. The equilibrium dissociation constant (Kd) in data set [3] is greater than 30200 nM. Besides, in data set [4], the affinity, expressed as Kd, was 19100 nM. In data set [5], this molecule returned a dissociation constant Kd greater than 30200 nM. The dissociation constant (Kd) in data set [6] turned out to be 214 nM. This molecule also displayed an equilibrium dissociation constant (Kd) in data set [7] greater than 30200 nM.
As for `CC(Oc1cc(F)cc(F)c1)c1cc(-c2cnc[nH]2)cc2ncc(N3CCOCC3)nc12` (single isomer, unassigned) [Compound 22], the melting point was determined as 183 °C. In addition, the half-maximal inhibitory concentration (IC50) in data set [1] was greater than 513 nM. For the same molecule, the IC50 in data set [2] is greater than 513 nM. The dissociation constant Kd in data set [3] was greater than 30200 nM. The molecule further had a Kd in data set [4] of 15100 nM. Besides, in data set [5], the Kd turned out to be 21900 nM. Further, the dissociation constant (Kd) in data set [6] worked out at 5620 nM. In data set [7], the Kd worked out at 18600 nM.
In turn, `O=C(c1cc(C2CCCN2c2cc(F)cc(F)c2)c2nc(N3CCOCC3)cnc2c1)N1CCS(=O)(=O)CC1` (single isomer, unassigned) [Compound 38] showed a melting point of 146 °C. Further, the IC50 in data set [1] is roughly 0.8 nM. Moreover, in data set [2], the 50% inhibitory concentration (IC50) stood at 1 nM. Further, binding in data set [3] was characterised by a dissociation constant (Kd) of 933 nM. Moreover, in data set [4], the Kd amounted to 3 nM. In addition, the equilibrium dissociation constant (Kd) in data set [5] was greater than 30200 nM. The dissociation constant (Kd) in data set [6] amounted to 0.4 nM. Also, the equilibrium dissociation constant (Kd) in data set [7] worked out at 6 nM.
With `CC(C)NCCNC(=O)c1cc(C(C)Nc2cc(F)cc(F)c2)c2nc(N3CCOCC3)cnc2c1` (single isomer, unassigned) [Compound 212], the melting point is 204 °C. The half-maximal inhibitory concentration (IC50) in data set [1] stood at 398 nM. For the same molecule, the 50% inhibitory concentration (IC50) in data set [2] turned out to be 328 nM. This molecule also showed a Kd in data set [3] of 5070 nM. In data set [4], this molecule yielded a dissociation constant Kd of 7090 nM. For the same molecule, in data set [5], the Kd turned out to be 13800 nM. Besides, the equilibrium dissociation constant (Kd) in data set [6] turned out to be 12 nM. The Kd in data set [7] is 3290 nM.
As for `CC(Oc1ccc(F)c(F)c1)c1cc(C(=O)N(C)CCN(C)C)cc2ncc(N3CCOCC3)nc12` (stereo not drawn) [Compound 353], the melting point is 80 °C. Also, the concentration for half-maximal inhibition (IC50) in data set [1] (Homo sapiens, PC-3, 1 h) was 52 nM. In data set [2] (Homo sapiens, PC-3, 1 h), the 50% inhibitory concentration (IC50) was 18 nM. In data set [3], this molecule came in with an equilibrium dissociation constant (Kd) greater than 30200 nM. Moreover, the Kd in data set [4] was 5010 nM. This molecule registered a Kd in data set [5] greater than 30200 nM. Further, the dissociation constant (Kd) in data set [6] is 4 nM. In data set [7], this molecule showed a dissociation constant (Kd) of 692 nM.
For `CC(Nc1cccc(F)c1)c1cc(C(=O)N2CCC[C@H]2CO)cc2ncc(N3CCOCC3)nc12` (single isomer, unassigned) [Compound 116], the melting point worked out at 332 °C. In data set [1], the half-maximal inhibitory concentration (IC50) is greater than 513 nM. The IC50 in data set [2] is greater than 513 nM. The molecule further returned a Kd in data set [3] greater than 30200 nM. In data set [4], the dissociation constant (Kd) is greater than 30200 nM. Further, in data set [5], the Kd is greater than 30200 nM. Besides, the dissociation constant Kd in data set [6] was found to be 2880 nM. Besides, the equilibrium dissociation constant (Kd) in data set [7] was no less than 30200 nM.
